Measurements from patent US20240148820A1 (priority 2021, published 2024).
Where no end group is shown, it is not given here.

Biological target: S protein of SARS-CoV-2 (Severe acute respiratory syndrome coronavirus 2, UniProt P0DTC2)
Assay type: binding

Sequence: IPLRGAFINGRWDSQCHRFS [U5]
- effect of U5 on P9R binding to S protein: not P9R binding to S protein
